pEC50: −log10 of the molar value.

Data on 29 molecules can be found in patent US10526323B2, “Indazole and azaindazole substituted compounds as mGluR4 allosteric potentiators, compositions, and methods of treating neurological dysfunction” (Vanderbilt University, priority 2015, dated 2020).

For the assay, the target named is mGluR4 (UniProt Q14833). The experiment in a line: mGluR4 potentiation assay: increase in response to an EC20 concentration of agonist (species not given). It counts as cell-based. Conditions: EC50 for potentiation of mGluR4; table does not state human or rat. A digest of the protocol:
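Human mGluR4 was expressed in CHO cells read with a Ca2+-sensitive dye; rat mGluR4 was co-expressed with GIRK in […] read by thallium flux. Potentiation is the rise over agonist-alone response, with EC50 and maximal potentiation from non-linear fits.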
Turning to `c1ccc2c(Nc3cnc4cnn(CC5CCC5)c4c3)n[nH]c2c1` [Example 27, 1-(cyclobutylmethyl)-N-(1H-indazol-3-yl)-1H-pyrazolo[4,3-b]pyridin-6-amine], the pEC50 is < 5.00.

Consider `Cn1nc(C2(C)CC2)c2ccc(Nc3n[nH]c4cccnc34)cc21` [Example 28, N-(1-methyl-3-(1-methylcyclopropyl)-1H-indazol-6-yl)-1H-pyrazolo[4,3-b]pyridin-3-amine], for which the pEC50 is 7.17.

As for `Cn1nc(C(=O)NC2CC(F)C2)c2ccc(Nc3n[nH]c4cccnc34)cc21` (centres unmarked) [Example 175, N-(3-fluorocyclobutyl)-1-methyl-6-(1H-pyrazolo[4,3-b]pyridin-3-ylamino)indazole-3-carboxamide], the pEC50 was 6.10.

Turning to `Cn1nc(C(=O)N2CCCC2)c2ccc(Nc3n[nH]c4cccnc34)cc21` [Example 173, [1-methyl-6-(1H-pyrazolo[4,3-b]pyridin-3-ylamino)indazol-3-yl]-pyrrolidin-1-yl-methanone], the pEC50 was 6.08.

Take `CC(C)n1nc(C2CC2)c2ccc(Nc3n[nH]c4cccnc34)cc21` [Example 16, N-(3-cyclopropyl-1-isopropyl-1H-indazol-6-yl)-1H-pyrazolo[4,3-b]pyridin-3-amine]: the pEC50 is < 5.00.

With `CCn1nc(Cl)c2cc(Nc3n[nH]c4cccnc34)ccc21` [Example 141, N-(3-chloro-1-ethyl-1H-indazol-5-yl)-1H-pyrazolo[4,3-b]pyridin-3-amine], the pEC50 is 6.09.

As to `C=C(C)Cn1nc(C)c2cc(Nc3n[nH]c4cccnc34)ccc21` [Example 122, N-(3-methyl-1-(2-methylallyl)-1H-indazol-5-yl)-1H-pyrazolo[4,3-b]pyridin-3-amine], the pEC50 was 7.31.

Consider `[2H]C([2H])([2H])n1nc(C2CC2)c2ccc(Nc3n[nH]c4nccnc34)cc21` [Example 22, N-(3-cyclopropyl-1-(methyl-d3)-1H-indazol-6-yl)-1H-pyrazolo[3,4-b]pyrazin-3-amine], for which the negative-log EC50 (pEC50) was 8.00.

Take `FC1(F)CC(Cn2nc(Cl)c3cc(Nc4n[nH]c5cccnc45)ccc32)C1` [Example 287, N-(3-chloro-1-((3,3-difluorocyclobutyl)methyl)-1H-indazol-5-yl)-1H-pyrazolo[4,3-b]pyridin-3-amine]: the pEC50 is 5.52.

As to `Cc1nn(CC2CCC2)c2ccc(Nc3n[nH]c4nccnc34)cc12` [Example 73, N-(1-(cyclobutylmethyl)-3-methyl-1H-indazol-5-yl)-1H-pyrazolo[3,4-b]pyrazin-3-amine], the pEC50 was 6.73.

Turning to `Cc1nn(C(C)C)c2ncc(Nc3n[nH]c4ncccc34)cc12` [Example 267, N-(1-isopropyl-3-methyl-1H-pyrazolo[3,4-b]pyridin-5-yl)-1H-pyrazolo[3,4-b]pyridin-3-amine], the pEC50 is < 5.00.

Consider `COC(=O)CCCNc1nn(C)c2cc(Nc3n[nH]c4cccnc34)ccc12` [Example 38, methyl 4-((6-((1H-pyrazolo[4,3-b]pyridin-3-yl)amino)-1-methyl-1H-indazol-3-yl)amino)butanoate], for which the pEC50 was 6.58.

As for `c1ccc2c(Nc3ccc4c(cnn4CC4CCC4)c3)n[nH]c2c1` [Example 86, N-(1-(cyclobutylmethyl)-1H-indazol-5-yl)-1H-indazol-3-amine], the pEC50 was 7.29.

In the case of `COC(=O)Cn1nc(C)c2cc(Nc3n[nH]c4cccnc34)ccc21` [Example 118, methyl 2-(5-((1H-pyrazolo[4,3-b]pyridin-3-yl)amino)-3-methyl-1H-indazol-1-yl)acetate], the pEC50 was 6.06.

As for `Cn1ncc2cc(Nc3n[nH]c4cccnc34)cc(Cl)c21` [Example 63, N-(7-chloro-1-methyl-1H-indazol-5-yl)-1H-pyrazolo[4,3-b]pyridin-3-amine], the pEC50 is 7.07.

In the case of `Cn1ncc2ncc(Nc3n[nH]c4cccnc34)cc21` [Example 147, N-(1-methyl-1H-pyrazolo[4,3-b]pyridin-6-yl)-1H-pyrazolo[4,3-b]pyridin-3-amine], the pEC50 was 5.90.

Regarding `Cc1nn(CC(C)C)c2ccc(Nc3n[nH]c4cccnc34)cc12` [Example 112, N-(1-isobutyl-3-methyl-1H-indazol-5-yl)-1H-pyrazolo[4,3-b]pyridin-3-amine], the negative-log EC50 (pEC50) was 7.02.

Turning to `CCCn1nc(C)c2cc(Nc3n[nH]c4cccnc34)cnc21` [Example 264, 3-methyl-1-propyl-N-(1H-pyrazolo[4,3-b]pyridin-3-yl)pyrazolo[3,4-b]pyridin-5-amine], the pEC50 is 6.82.

Regarding `Cc1nn(C2CCCCC2)c2ncc(Nc3n[nH]c4cccnc34)cc12` [Example 260, 1-cyclohexyl-3-methyl-N-(1H-pyrazolo[4,3-b]pyridin-3-yl)pyrazolo[3,4-b]pyridin-5-amine], the negative-log EC50 (pEC50) is 6.36.

Turning to `Cc1cc(Cn2ncc3ncc(Nc4n[nH]c5nccnc45)cc32)no1` [Example 143, N-(1-((5-methylisoxazol-3-yl)methyl)-1H-pyrazolo[4,3-b]pyridin-6-yl)-1H-pyrazolo[3,4-b]pyrazin-3-amine], the pEC50 was < 5.00.

`Cn1nc(NC(=O)C(F)(F)F)c2ccc(Nc3n[nH]c4cccnc34)cc21` [Example 25, N-(6-((1H-pyrazolo[4,3-b]pyridin-3-yl)amino)-1-methyl-1H-indazol-3-yl)-2,2,2-trifluoroacetamide]: the pEC50 was 6.50.

Consider `Cc1cc(Cn2ncc3c(Nc4n[nH]c5cccnc45)cccc32)no1` [Example 32, N-(1-((5-methylisoxazol-3-yl)methyl)-1H-indazol-4-yl)-1H-pyrazolo[4,3-b]pyridin-3-amine], for which the pEC50 was 6.24.

`Cc1nn(CCCO)c2ncc(Nc3n[nH]c4cccnc34)cc12` [Example 255, 3-[3-methyl-5-(1H-pyrazolo[4,3-b]pyridin-3-ylamino)pyrazolo[3,4-b]pyridin-1-yl]propan-1-ol]: the pEC50 is < 4.52.

Take `Cn1nc(C2CC2)c2ccc(Nc3n[nH]c4ncccc34)cc21` [Example 13, N-(3-cyclopropyl-1-methyl-1H-indazol-6-yl)-1H-pyrazolo[3,4-b]pyridin-3-amine]: the pEC50 was 7.37.

With `Cc1c2cc(Nc3n[nH]c4cccnc34)ccc2nn1C(C)C` [Example 59, N-(2-isopropyl-3-methyl-2H-indazol-5-yl)-1H-pyrazolo[4,3-b]pyridin-3-amine], the pEC50 was < 5.00.

In the case of `[2H]C([2H])([2H])n1nc(C2CC2)c2ccc(Nc3n[nH]c4cccnc34)cc21` [Example 23, N-(3-cyclopropyl-1-(methyl-d3)-1H-indazol-6-yl)-1H-pyrazolo[4,3-b]pyridin-3-amine], the pEC50 was 7.44.

For the molecule `c1nc2cnn(CC3CCC3)c2cc1Nc1n[nH]c2c1CCCC2` [Example 150, 1-(cyclobutylmethyl)-N-(4,5,6,7-tetrahydro-1H-indazol-3-yl)-1H-pyrazolo[4,3-b]pyridin-6-amine], the pEC50 was < 5.00.

Turning to `Cc1nn(C(C)C)c2ncc(Nc3n[nH]c4cccnc34)cc12` [Example 270, N-(1-isopropyl-3-methyl-1H-pyrazolo[3,4-b]pyridin-5-yl)-1H-pyrazolo[4,3-b]pyridin-3-amine], the pEC50 is < 4.52.

`Cn1nc(C(=O)N2CCCC(F)C2)c2ccc(Nc3n[nH]c4cccnc34)cc21` (centres unmarked) [Example 163, (3-fluoro-1-piperidyl)-[1-methyl-6-(1H-pyrazolo[4,3-b]pyridin-3-ylamino)indazol-3-yl]methanone]: the pEC50 is 5.66.

As a reminder, the pEC50 is −log10 of the EC50, conventionally taken in molar units.
